Here are results for 15 molecules from patent US6197225A, “Chromene compound” (Tokuyama Corporation, priority 1997, dated 2001).

For data set [1] the following is noted: prior-art compound, placed in a dark place after color development; cited from earlier work.
Data set [2] is described as follows: Photochromic properties of cast polymer (2 mm thick) under xenon lamp irradiation for 120 seconds. The settings on record: single chromene compound 0.04% by weight in polymer, 20° C., Table 5; for Color density ε(120)-ε(0): 120 seconds. It counts as physicochemical. The protocol:
0.04% by weight of the chromene compound obtained in Example 1 was added to 70 parts of 4G, 15 parts of 3G, 10 parts of GMA, 5 parts of HEMA and 1 part of perbutyl ND, and was mixed together to a sufficient degree. The mixture solution was poured into a mold constituted by a glass plate and a gasket of an ethylene/vinyl acetate copolymer, and was cast-polymerized. By using an air furnace, the polymerization was conducted in a manner that the temperature was gradually raised from 30° C. to 90° C. over a period of 18 hours, and was held at 90° C. for 2 hours. After the polymerization, the polymer was taken out from the glass mold.
By using a xenon lamp, L-2480 (300 W) SHL-100, manufactured by Hamamatsu Photonics Co., the obtained polymer (2 mm thick) was irradiated with a beam of an intensity of 365 nm=2.4 mW/cm^2 and 245 nm=24 μW/cm^2 on the surface of the polymer for 120 seconds through an aero-mass filter (manufactured by Corning Co.) at 20° C.±1° C. to develop color and to measure the photochromic properties which were expressed in the following manner.
1 Maximum absorption wavelength (λmax): λmax of the polymer after it has developed color was found by using a spectrophotometer (instantaneous multi-channel photo-detector, MCPD1000) manufactured by Otsuka Denshi Kogyo Co.
2 Initial color ( ε(0)): Absorbency of the polymer in a non-irradiated state at a wavelength same as the maximum absorption wavelength of when it is irradiated with light.
3 Color density (-)=ε(120)-ε(0). ε(120): Absorbency of the polymer at a maximum absorption wavelength after it was irradiated for 120 seconds under the above-mentioned conditions.
4 Color-developing sensitivity (-/min.)=Saturated color density/xenon irradiation time.
Rate of increase in the color density per a unit time until the color density is saturated.
5 Color fading rate [t1/2 (min.)]=time required until the absorbency of the polymer drops down to one-half of [ε(120)-ε(0)] after irradiated for 120 seconds.
(§1) Photochromic polymers were prepared in the same manner as in Example 42 but using the chromene compounds obtained in Examples 2 to 41, and their maximum absorption wavelengths, color densities, fading rates, changes in the coloring degrees and durabilitys were measured.
(§2) For the purpose of comparison, furthermore, the compounds represented by the following formulas (a), (b), (c), (d), (e) and (f) were measured for their maximum absorption wavelengths, color densities, fading rates, changes in the coloring degrees and durabilitys.
(§3) The procedure was carried out in the same manner as in Example 42 but using 100 parts of AC1 and 133 parts of BC1, the sum of the amounts of AC1 and BC1 being 0.04% by weight. The obtained photochromic polymer was measured for its maximum absorption wavelength, initial color, color density, color-developing sensitivity, fading rate, durability and change in the coloring degree.
(§4) The procedure was carried out in the same manner as in Example 83 but using the known chromene compounds shown in Table 6 instead of the chromene compound used in Example 83. […]

Data set [3] can be described thus: Aging promotion testing: sunlight 30 min / fading one hour cycles, 10 days (durability, coloring degree). The class given is physicochemical. The settings on record: single chromene compound in polymer, 10 days aging, Table 5; for Change in the coloring degree ΔYI: YI(10)-YI(0). The procedure:
In order to promote the aging, furthermore, the following testing was conducted. That is, the obtained photochromic polymer was irradiated with sunlight for 30 minutes to develop color, and its color was permitted to fade for one hour in the light of a fluorescent lamp. This cycle was repeated three times a day for a total of 10 days.
The photochromic properties before and after aged were evaluated by evaluating the color densities before and after aged. The initial color density (T0) and the color density (T30) ten days after the aging promotion testing were measured, and the durability was expressed as described below.
Furthermore, the coloring degrees of before developing color were measured before and after aged by using a color difference meter (SM-4) manufactured by Suga Shikenki Co.
7 Coloring degree before being aged=YI(0).
8 Change in the coloring degree (ΔYI)=YI(10)-YI(0)
YI(10): coloring degree after aged
as §1, §2, §3, §4
The obtained polymer (2 mm thick) was caused to develop color outdoors, and tones of the developed color were observed by eyes 30 seconds and 15 minutes after it was brought to the outdoors, and uniformity in the step of developing color was evaluated. […] Furthermore, the aging promoting testing was conducted in the same manner as in Example 42 to find a coloring degree (YI(0)) before aged and a change in the coloring degree (ΔY).

The structures appear in SMILES notation.

With `C1=CC2(CC3CCC2C3)Oc2c1ccc1ccccc21` (stereo not shown) [(A)], in data set [1], the “fading rate (in words)” value was “slow fading rate”.
Turning to `CC(C)(C)c1cc2ccccc2c2c1C=CC1(O2)C2(Cl)CCC1(Cl)CC2` (stereo not shown) [Compound 20], in data set [2], the “Fading rate t1/2” value is given as 1.3 min, the “Maximum absorption wavelength λmax” value stood at 440 nm and the “Color density ε(120)-ε(0)” value is given as 0.4. In addition, in data set [3], the “Change in the coloring degree ΔYI” value was 4.0 and the “Light resistance (durability)” value came out at 80%.
For `CCC(C)(CC)c1cc2ccccc2c2c1C=CC(c1ccc(OC)c(F)c1)(c1ccc(OC)c(F)c1)O2` [Compound 5] the same measures were 2.2 min, 465 nm, 0.6, 1.5 and 99%.
The corresponding values for `CCC(C)c1cc2ccccc2c2c1C=CC(c1ccc(OC)cc1)(c1ccc(OC)c(C#N)c1)O2` (stereo not shown) [Compound 4] are 2.4 min, 470 nm, 0.7, 5.0 and 80%.
The corresponding values for `CC(C)(C)c1cc2ccccc2c2c1C=CC1(CC3CCC1C3)O2` (stereo not shown) [Compound 18] are 1.3 min, 440 nm, 0.4, 1.8 and 95%.
On to `C1=CC2(Oc3c1ccc1ccccc31)C1CCCC2CCC1` (stereo not shown) [d, reference compound], for which, in data set [2], the “Fading rate t1/2” value was 11 min, the “Maximum absorption wavelength λmax” value came out at 452 nm and the “Color density ε(120)-ε(0)” value came out at 1.0. Moreover, in data set [3], the “Change in the coloring degree ΔYI” value came out at 1.5 and the “Light resistance (durability)” value worked out at 98%.
For `CCc1cc2ccccc2c2c1C=CC(c1ccc(OC)cc1)(c1ccc(OC)cc1)O2` [Compound 28] the same measures were 5.5 min, 502 nm, 1.0, 2.5 and 96%.
For `COc1ccc(C2(c3ccco3)C=Cc3c(C)cc4ccccc4c3O2)cc1F` (stereo not shown) [Compound 31] the same measures were 7.0 min, 506 nm, 1.1, 3.0 and 95%.
As to `COc1ccc(C2(c3ccc(OC)cc3)C=Cc3c(C)cc4ccc(C)cc4c3O2)cc1` [Compound 36], in data set [2], the “Fading rate t1/2” value was found to be 6.0 min, the “Maximum absorption wavelength λmax” value amounted to 510 nm and the “Color density ε(120)-ε(0)” value is reported as 1.1. In addition, in data set [3], the “Change in the coloring degree ΔYI” value was determined as 2.3 and the “Light resistance (durability)” value was determined as 98%.
Turning to `COc1ccc(C2(c3ccc(OC(F)(F)F)cc3)C=Cc3c(C)cc4ccccc4c3O2)cc1` (stereo not shown) [Compound 30], in data set [2], the “Fading rate t1/2” value came out at 8.5 min, the “Maximum absorption wavelength λmax” value amounted to 490 nm and the “Color density ε(120)-ε(0)” value is on record as 1.1. For the same molecule, in data set [3], the “Change in the coloring degree ΔYI” value is on record as 2.4 and the “Light resistance (durability)” value was determined as 97%.
`COc1ccc(C2(c3cccs3)C=Cc3c(C)cc4ccccc4c3O2)cc1` (stereo not shown) [Compound 32]: in data set [2], the “Fading rate t1/2” value was 6.5 min, the “Maximum absorption wavelength λmax” value is on record as 512 nm and the “Color density ε(120)-ε(0)” value is recorded as 1.0. In data set [3], the “Change in the coloring degree ΔYI” value was found to be 2.7 and the “Light resistance (durability)” value amounted to 96%.
The corresponding values for `CCOC(=O)c1c2c(c3ccccc3c1C)OC1(C=C2)C2CCCC1CCC2` (stereo not shown) [f, reference compound] are 4.1 min, 446 nm, 0.6, 6.0 and 96%.
Regarding `Cc1cc2ccccc2c2c1C=CC(c1ccccc1)(c1ccccc1)O2` [(C)], in data set [1], the “fading rate (in words)” value was “a fading rate nearly the same as that of the above-mentioned compound (A)”.
Take `COc1ccc(C2(c3ccc(OC)cc3)C=Cc3c(C)cc4cc(-c5ccccc5)ccc4c3O2)cc1` [Compound 37]: in data set [2], the “Fading rate t1/2” value is on record as 7.2 min, the “Maximum absorption wavelength λmax” value stood at 512 nm and the “Color density ε(120)-ε(0)” value was found to be 1.3. Further, in data set [3], the “Change in the coloring degree ΔYI” value stood at 2.5 and the “Light resistance (durability)” value was found to be 97%.
The corresponding values for `COc1ccc(C2(c3ccc(OC)c(F)c3)C=Cc3c(C(C)C)cc4ccccc4c3O2)cc1F` [Compound 14] are 4.3 min, 492 nm, 0.8, 1.3 and 99%.
